The nature of experiment [1]: Ratio of kcat/km of PKS TEs assessed as hydrolysis of 6-deoxyerythronolide-B.
A short description of experiment [2]: Activity at PKS TEs assessed as hydrolysis of epothilone.
A short description of experiment [3]: Ratio of kcat/km of PKS TEs assessed as hydrolysis of epothilone.
Experiment [4] in a line: Ratio of kcat/km of PKS TEs assessed as hydrolysis of pimaricin.
The nature of experiment [5]: Activity at PKS TEs assessed as hydrolysis of pimaricin.

The structures appear in SMILES notation.

Consider `CC(=O)NCCSC(=O)CNC(=O)[C@H](C)NC(=O)OC(C)(C)C`, for which the kcat/Km (usually the turnover number divided by the Michaelis constant) in experiment [1] amounted to 0.39 M⁻¹ s⁻¹. Moreover, in experiment [2], the Km (commonly the concentration of substrate that gives half-maximal velocity) was 2900 µM; the catalytic constant (kcat) – broadly, the number of substrate molecules converted per active site and unit of time at saturation – was 0.32 s⁻¹. In experiment [3], the kcat/Km came out at 110 M⁻¹ s⁻¹.
Consider `CC(=O)NCCSC(=O)[C@H](C)NC(=O)OC(C)(C)C`, for which the kcat/Km in experiment [1] was found to be 0.88 M⁻¹ s⁻¹; in experiment [3], 91.3 M⁻¹ s⁻¹.
With `CC(=O)NCCSC(=O)[C@@H](C)NC(=O)OC(C)(C)C`, the kcat/Km in experiment [1] is 0.5 M⁻¹ s⁻¹; in experiment [3], 12.5 M⁻¹ s⁻¹.
As to `CC(=O)NCCSC(=O)CNC(=O)OC(C)(C)C`, the specificity constant (kcat/Km) in experiment [1] came out at 7 M⁻¹ s⁻¹; in experiment [3], 145 M⁻¹ s⁻¹; in experiment [4], 1.29 M⁻¹ s⁻¹.
Take `CC(=O)NCCSC(=O)CCCCCCNC(=O)OC(C)(C)C`: the figures for the kcat/Km in experiment [1], in experiment [3] and in experiment [4] were 1.47 M⁻¹ s⁻¹, 75.1 M⁻¹ s⁻¹ and 23.3 M⁻¹ s⁻¹, respectively. Besides, the Michaelis-Menten constant (Km) in experiment [2] stood at 400 µM; in experiment [5] it was 800 µM. Also, the kcat in experiment [2] stood at 0.0303 s⁻¹; in experiment [5] it was 0.02 s⁻¹.
Regarding `CC(=O)NCCSC(=O)CCNC(=O)c1ccccc1`, the kcat/Km in experiment [1] worked out at 7.75 M⁻¹ s⁻¹; in experiment [3], 24.2 M⁻¹ s⁻¹; in experiment [4], 1.14 M⁻¹ s⁻¹.
With `CC(=O)NCCSC(=O)CNC(=O)[C@@H](C)NC(=O)OC(C)(C)C`, the kcat/Km was found to be 0.8 M⁻¹ s⁻¹ in experiment [1] and 38.8 M⁻¹ s⁻¹ in experiment [3]. Besides, the Michaelis-Menten constant (Km) in experiment [2] was 1300 µM. In addition, the kcat in experiment [2] turned out to be 0.0517 s⁻¹.
